Source: ChEMBL document CHEMBL5226279, “Mercaptoacetamide: A promising zinc-binding group for the discovery of selective histone deacetylase 6 inhibitors” (Eur J Med Chem, 2021)
pIC50: −log10 of the molar value. Values after ≈ are worked out from the molar mass of the structure shown.

Tests used:
[1] = target: T1, Histone deacetylase 8 (Homo sapiens, UniProt Q9BY41); assay: Inhibition of human HDAC8 incubated for 90 mins by fluorescence assay
T1 sequence (Q9BY41 whole entry): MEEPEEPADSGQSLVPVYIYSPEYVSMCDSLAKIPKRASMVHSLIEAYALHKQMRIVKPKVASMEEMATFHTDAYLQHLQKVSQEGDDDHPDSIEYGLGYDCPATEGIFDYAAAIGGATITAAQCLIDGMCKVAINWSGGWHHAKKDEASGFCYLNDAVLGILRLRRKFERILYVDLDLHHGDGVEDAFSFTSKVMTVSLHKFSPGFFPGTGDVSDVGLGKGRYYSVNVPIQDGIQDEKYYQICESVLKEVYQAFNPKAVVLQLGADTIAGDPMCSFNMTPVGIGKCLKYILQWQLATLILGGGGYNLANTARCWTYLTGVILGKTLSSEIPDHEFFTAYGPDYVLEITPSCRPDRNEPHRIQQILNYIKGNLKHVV

[2] = target: T2, Histone deacetylase 7 (Homo sapiens, UniProt Q8WUI4); assay: Inhibition of human recombinant HDAC7 incubated for 17 hrs
T2 sequence (Q8WUI4 whole entry): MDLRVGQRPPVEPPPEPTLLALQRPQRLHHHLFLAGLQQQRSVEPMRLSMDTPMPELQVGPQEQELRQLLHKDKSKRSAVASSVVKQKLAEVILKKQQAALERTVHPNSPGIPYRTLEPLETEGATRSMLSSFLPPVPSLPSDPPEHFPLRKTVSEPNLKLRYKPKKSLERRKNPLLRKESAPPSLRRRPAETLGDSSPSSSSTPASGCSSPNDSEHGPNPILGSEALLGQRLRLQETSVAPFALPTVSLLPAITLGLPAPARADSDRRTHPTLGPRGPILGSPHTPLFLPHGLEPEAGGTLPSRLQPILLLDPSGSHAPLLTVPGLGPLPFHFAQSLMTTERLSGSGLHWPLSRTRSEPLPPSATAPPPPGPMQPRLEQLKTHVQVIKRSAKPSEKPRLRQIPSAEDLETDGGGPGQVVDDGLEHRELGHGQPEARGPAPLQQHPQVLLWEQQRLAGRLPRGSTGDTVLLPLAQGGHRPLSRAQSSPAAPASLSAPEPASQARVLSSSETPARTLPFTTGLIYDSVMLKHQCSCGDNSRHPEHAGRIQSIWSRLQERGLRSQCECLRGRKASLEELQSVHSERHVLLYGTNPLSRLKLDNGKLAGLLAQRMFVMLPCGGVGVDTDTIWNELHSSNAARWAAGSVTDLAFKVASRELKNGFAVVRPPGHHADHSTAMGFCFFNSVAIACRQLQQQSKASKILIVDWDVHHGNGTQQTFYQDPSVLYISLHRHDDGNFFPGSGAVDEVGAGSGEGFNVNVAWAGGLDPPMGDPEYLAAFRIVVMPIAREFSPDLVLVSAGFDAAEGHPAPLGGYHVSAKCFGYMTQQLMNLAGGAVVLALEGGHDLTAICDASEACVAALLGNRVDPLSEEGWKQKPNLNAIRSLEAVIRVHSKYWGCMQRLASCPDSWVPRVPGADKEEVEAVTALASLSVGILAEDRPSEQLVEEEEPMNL

[3] = target: Histone deacetylase 4 (Homo sapiens, UniProt P56524); assay: Inhibition of human recombinant HDAC4 incubated for 17 hrs
[4] = target: T3, Histone deacetylase 11 (Homo sapiens, UniProt Q96DB2); assay: Inhibition of human recombinant HDAC11 incubated for 17 hrs
T3 sequence (Q96DB2 whole entry): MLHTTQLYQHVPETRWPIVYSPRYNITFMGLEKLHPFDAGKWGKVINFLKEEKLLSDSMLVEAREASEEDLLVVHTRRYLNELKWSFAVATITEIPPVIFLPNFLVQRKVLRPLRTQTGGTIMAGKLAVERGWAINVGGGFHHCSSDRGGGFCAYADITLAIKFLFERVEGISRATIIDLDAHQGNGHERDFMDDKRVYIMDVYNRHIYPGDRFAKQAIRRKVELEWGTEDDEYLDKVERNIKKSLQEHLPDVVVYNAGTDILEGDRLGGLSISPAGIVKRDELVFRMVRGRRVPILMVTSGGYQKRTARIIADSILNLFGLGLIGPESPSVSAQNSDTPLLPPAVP

[5] = target: T1, Histone deacetylase 8; assay: Inhibition of human HDAC8 using FAM-labeled acetylated peptide as substrate incubated for 17 hrs by fluorescence based assay
[6] = target: Histone deacetylase 3 (Homo sapiens, UniProt O15379); assay: Inhibition of human HDAC3 using FAM-labeled acetylated peptide as substrate incubated for 17 hrs by fluorescence based assay
[7] = target: Histone deacetylase 2 (Homo sapiens, UniProt Q92769); assay: Inhibition of human HDAC2 using FAM-labeled acetylated peptide as substrate incubated for 17 hrs by fluorescence based assay
[8] = target: T4, Protein deacetylase HDAC6 (Homo sapiens, UniProt Q9UBN7); assay: Inhibition of human HDAC6 using FAM-labeled acetylated peptide as substrate incubated for 17 hrs by fluorescence based assay
T4 sequence (Q9UBN7 whole entry): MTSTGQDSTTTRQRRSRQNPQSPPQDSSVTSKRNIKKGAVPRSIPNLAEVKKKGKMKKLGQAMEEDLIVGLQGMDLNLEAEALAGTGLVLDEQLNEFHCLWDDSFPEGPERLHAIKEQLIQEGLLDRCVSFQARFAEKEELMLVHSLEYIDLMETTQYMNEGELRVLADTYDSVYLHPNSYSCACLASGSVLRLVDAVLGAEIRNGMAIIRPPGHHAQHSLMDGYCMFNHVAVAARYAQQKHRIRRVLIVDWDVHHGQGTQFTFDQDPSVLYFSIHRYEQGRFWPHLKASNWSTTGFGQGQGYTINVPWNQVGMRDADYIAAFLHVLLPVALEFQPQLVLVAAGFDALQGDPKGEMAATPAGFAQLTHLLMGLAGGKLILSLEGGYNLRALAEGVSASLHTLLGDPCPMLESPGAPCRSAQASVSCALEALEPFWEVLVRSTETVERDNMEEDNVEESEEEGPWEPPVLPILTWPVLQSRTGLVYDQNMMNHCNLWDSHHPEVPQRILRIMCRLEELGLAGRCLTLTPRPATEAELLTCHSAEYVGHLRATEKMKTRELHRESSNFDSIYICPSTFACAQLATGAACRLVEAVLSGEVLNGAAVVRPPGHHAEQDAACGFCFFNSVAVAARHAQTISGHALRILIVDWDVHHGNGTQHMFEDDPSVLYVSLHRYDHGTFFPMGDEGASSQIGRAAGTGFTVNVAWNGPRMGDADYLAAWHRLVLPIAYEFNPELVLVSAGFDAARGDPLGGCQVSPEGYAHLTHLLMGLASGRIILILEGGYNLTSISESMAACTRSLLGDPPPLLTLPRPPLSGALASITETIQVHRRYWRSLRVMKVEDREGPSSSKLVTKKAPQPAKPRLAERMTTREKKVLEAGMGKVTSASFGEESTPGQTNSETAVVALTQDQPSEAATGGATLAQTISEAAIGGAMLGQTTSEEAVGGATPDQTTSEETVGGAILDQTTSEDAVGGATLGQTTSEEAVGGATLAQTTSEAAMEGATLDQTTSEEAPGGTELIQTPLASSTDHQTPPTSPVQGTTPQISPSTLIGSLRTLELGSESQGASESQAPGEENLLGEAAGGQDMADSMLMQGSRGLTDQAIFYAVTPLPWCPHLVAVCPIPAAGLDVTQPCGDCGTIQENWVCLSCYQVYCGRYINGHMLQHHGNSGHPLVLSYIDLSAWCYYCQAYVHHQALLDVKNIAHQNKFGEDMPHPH

[9] = target: T5, Histone deacetylase 1 (Homo sapiens, UniProt Q13547); assay: Inhibition of human HDAC1 using FAM-labeled acetylated peptide as substrate incubated for 17 hrs by fluorescence based assay
[10] = target: T6, Polyamine deacetylase HDAC10 (Homo sapiens, UniProt Q969S8); assay: Inhibition of human HDAC10 using FAM-labeled acetylated peptide as substrate incubated for 17 hrs by fluorescence based assay
T6 sequence (Q969S8 whole entry): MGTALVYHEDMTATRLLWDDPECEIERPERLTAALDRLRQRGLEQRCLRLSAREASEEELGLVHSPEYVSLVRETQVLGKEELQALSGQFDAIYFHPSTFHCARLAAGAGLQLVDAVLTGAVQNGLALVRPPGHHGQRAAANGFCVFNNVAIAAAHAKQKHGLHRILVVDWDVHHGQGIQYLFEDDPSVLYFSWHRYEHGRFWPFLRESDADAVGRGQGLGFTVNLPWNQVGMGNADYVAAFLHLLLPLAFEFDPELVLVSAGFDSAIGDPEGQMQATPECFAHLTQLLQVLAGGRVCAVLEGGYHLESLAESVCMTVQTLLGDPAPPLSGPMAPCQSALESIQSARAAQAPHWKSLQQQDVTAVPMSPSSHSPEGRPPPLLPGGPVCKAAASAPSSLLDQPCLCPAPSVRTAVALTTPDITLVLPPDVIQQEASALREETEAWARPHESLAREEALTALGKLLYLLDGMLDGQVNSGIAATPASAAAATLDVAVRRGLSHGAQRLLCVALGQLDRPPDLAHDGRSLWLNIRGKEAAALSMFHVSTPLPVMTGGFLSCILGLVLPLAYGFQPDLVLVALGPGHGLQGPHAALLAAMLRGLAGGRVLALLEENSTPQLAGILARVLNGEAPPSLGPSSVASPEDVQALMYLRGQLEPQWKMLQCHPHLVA

[11] = Stability in human liver microsomes assessed as half life; format: ADME, Microsome
[12] = Apparent permeability across basolateral to apical side in human Caco-2 cells; format: ADME, cell-based
[13] = Stability in rat liver microsomes assessed as half life; format: ADME, Microsome
[14] = Lipophilicity, logD of the compound at 37 degreeC; format: physicochemical; details: octanol/water
[15] = Solubility of compound in HCl at pH 1.2 at 37 degreeC measured after 24 hrs; format: physicochemical
[16] = Solubility of compound in PBS at pH 7.4 at 37 degreeC measured after 24 hrs; format: physicochemical
[17] = target: T4, Protein deacetylase HDAC6; assay: Inhibition of HDAC6 (unknown origin)
[18] = tested on: N2a; assay: Antialzheimer activity in mouse N2a cells overexpressing hAPP assessed as reduction in human amyloid beta 40 level at 1 to 5 uM incubated for 24 hrs by ELISA relative to control; format: functional; parameters: scale not given: the % may be the effect or the level left; details: dose 1-5 µM
[19] = tested on: N2a; assay: Antialzheimer activity in mouse N2a cells overexpressing hAPP assessed as reduction in human amyloid beta 42 level at 1 to 5 uM incubated for 24 hrs by ELISA relative to control; format: functional; parameters: scale not given: the % may be the effect or the level left; details: dose 1-5 µM
[20] = Stability in mouse plasma assessed as half life; format: ADME, cell-free
[21] = Stability in rat plasma assessed as half life; format: ADME, cell-free
[22] = Cmax in mouse at 400 mg/kg, ip; format: ADME, organism-based; parameters: dose 400 mg/kg, route ip; details: in vivo
[23] = Stability in human plasma assessed as half life; format: ADME, cell-free
[24] = Apparent permeability across apical to basolateral side in human Caco-2 cells; format: ADME, cell-based
[25] = Stability in porcine plasma assessed as half life; format: ADME, cell-free, Sus scrofa; details: pig
[26] = Antialzheimer activity in rat Primary cortical neurons assessed as reduction in amyloid beta 40 level incubated for 24 hrs by ELISA relative to control; format: functional, Cortical neurone; parameters: scale not given: the % may be the effect or the level left
[27] = AUC in mouse at 400 mg/kg, ip; format: ADME, organism-based; parameters: dose 400 mg/kg, route ip; details: in vivo
[28] = Tmax in mouse at 400 mg/kg, ip; format: ADME, organism-based; details: in vivo
[29] = Stability in dog liver microsomes assessed as half life; format: ADME, Canis lupus familiaris, Microsome
[30] = Half life in mouse at 400 mg/kg, ip; format: ADME, organism-based; details: in vivo
[31] = Clearance in mouse at 400 mg/kg, ip; format: ADME, organism-based; details: in vivo
[32] = target: T4, Protein deacetylase HDAC6; assay: Inhibition of human HDAC6
[33] = target: T5, Histone deacetylase 1; assay: Inhibition of human HDAC1

T5 sequence (Q13547 whole entry): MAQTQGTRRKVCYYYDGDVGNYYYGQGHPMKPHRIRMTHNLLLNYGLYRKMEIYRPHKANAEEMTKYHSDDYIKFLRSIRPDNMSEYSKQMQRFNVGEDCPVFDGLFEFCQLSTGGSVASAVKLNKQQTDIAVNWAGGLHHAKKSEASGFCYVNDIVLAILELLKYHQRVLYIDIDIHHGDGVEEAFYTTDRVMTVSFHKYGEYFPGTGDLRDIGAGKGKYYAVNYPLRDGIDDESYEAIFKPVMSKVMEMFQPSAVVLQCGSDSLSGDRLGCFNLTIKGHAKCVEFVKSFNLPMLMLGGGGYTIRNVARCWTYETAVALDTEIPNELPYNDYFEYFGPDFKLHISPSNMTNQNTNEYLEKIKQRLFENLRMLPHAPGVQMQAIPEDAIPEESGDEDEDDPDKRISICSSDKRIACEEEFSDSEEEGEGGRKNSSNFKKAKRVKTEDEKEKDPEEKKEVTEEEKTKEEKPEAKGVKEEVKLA
Histone deacetylase 3, sequence (O15379 whole entry): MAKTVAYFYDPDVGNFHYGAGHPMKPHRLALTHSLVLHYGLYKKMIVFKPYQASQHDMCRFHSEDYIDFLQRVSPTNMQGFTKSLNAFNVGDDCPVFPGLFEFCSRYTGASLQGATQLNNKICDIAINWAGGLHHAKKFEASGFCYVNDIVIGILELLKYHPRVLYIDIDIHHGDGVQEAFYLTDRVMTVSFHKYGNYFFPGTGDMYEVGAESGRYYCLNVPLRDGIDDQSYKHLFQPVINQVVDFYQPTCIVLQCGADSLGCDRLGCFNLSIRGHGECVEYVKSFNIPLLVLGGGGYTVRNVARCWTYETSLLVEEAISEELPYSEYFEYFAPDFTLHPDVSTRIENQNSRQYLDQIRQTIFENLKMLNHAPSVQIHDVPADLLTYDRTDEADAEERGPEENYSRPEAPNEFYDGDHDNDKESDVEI
Histone deacetylase 4, sequence (P56524 whole entry): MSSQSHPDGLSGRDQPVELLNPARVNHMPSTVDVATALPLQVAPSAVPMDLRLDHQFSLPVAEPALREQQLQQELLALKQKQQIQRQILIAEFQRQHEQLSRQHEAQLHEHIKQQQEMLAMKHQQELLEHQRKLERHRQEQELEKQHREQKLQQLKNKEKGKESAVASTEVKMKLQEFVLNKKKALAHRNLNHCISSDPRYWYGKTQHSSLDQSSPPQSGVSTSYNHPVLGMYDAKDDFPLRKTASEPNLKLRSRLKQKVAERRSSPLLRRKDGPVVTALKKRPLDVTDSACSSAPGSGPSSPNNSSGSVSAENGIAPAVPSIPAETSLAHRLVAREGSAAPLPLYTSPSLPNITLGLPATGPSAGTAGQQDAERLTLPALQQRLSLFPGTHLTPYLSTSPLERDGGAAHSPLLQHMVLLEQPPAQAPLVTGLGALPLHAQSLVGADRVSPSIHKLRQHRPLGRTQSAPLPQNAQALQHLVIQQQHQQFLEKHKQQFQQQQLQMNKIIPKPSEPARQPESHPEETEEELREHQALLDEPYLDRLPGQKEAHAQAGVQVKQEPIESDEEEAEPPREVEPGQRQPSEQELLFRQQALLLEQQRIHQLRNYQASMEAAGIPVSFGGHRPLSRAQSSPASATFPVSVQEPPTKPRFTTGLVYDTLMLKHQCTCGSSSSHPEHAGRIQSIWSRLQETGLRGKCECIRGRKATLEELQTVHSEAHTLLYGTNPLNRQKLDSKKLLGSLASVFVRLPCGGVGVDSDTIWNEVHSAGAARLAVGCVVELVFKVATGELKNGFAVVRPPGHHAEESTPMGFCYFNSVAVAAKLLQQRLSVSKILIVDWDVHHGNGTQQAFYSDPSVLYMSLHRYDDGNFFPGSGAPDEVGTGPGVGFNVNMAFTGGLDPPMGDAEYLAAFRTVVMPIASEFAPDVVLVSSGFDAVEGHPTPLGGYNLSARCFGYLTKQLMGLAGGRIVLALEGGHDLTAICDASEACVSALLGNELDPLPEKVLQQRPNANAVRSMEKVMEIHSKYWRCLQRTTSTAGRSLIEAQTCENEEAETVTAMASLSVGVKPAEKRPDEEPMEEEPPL
Histone deacetylase 2, sequence (Q92769 whole entry): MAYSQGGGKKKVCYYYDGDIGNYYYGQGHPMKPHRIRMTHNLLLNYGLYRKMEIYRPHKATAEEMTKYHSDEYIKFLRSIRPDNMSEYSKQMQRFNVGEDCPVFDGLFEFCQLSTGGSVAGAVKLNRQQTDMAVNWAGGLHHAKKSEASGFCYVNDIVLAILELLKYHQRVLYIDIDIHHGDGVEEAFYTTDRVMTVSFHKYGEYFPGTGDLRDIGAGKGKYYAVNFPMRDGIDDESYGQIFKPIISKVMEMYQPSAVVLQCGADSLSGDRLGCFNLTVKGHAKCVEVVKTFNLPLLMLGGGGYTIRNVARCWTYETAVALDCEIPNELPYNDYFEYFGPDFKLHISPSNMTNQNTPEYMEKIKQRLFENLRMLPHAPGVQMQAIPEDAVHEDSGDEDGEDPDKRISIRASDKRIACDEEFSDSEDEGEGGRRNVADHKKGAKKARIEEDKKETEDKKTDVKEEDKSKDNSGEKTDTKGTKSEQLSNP

O=C(CS)NCCCCCC(=O)Nc1ccccc1
pIC50 [1]: 3.70

Nc1ccc(F)cc1NC(=O)c1ccc(CNC(=O)/C=C/c2cccnc2)cc1
pIC50 [2]: < 4.52
pIC50 [3]: < 4.52
pIC50 [4]: 6.36

N[C@@H](Cc1c[nH]c2ccccc12)C(=O)Nc1ccccc1-c1ccc(NC(=O)CCCCCNC(=O)CS)cc1
pIC50 [5]: 4.95
pIC50 [6]: 5.36
pIC50 [7]: < 4.52
pIC50 [8]: 6.18
pIC50 [9]: 5.15
pIC50 [10]: < 4.52

O=C(CS)NCCCCCC(=O)Nc1cccc2cccnc12
half-life [11]: 1.38 h
Papp B→A [12]: 24.7 ×10⁻⁶ cm/s
half-life [13]: 1.1 h
logD [14]: 2.64
solubility at 24 h [15]: 1000 µg/mL (≈ 3020 µM)
solubility at 24 h [16]: 150 µg/mL (≈ 453 µM)
pIC50 [17]: 7.70
Activity [18]: 20%
Activity [19]: 20%
half-life [20]: 0.967 h
half-life [21]: 1.53 h
Cmax [22]: 1810 nM
half-life [23]: 1.32 h
Papp A→B [24]: 15 ×10⁻⁶ cm/s
half-life [25]: 1.15 h
Activity [26]: 20%
AUC [27]: 4.97 µM·h
Tmax [28]: 0.5 h
half-life [29]: 1.2 h
half-life [30]: 2.2 h
CL/F [31]: 67.5 mL/min

O=C(/C=C/c1ccccc1Cl)NO
pIC50 [32]: 7.00
pIC50 [33]: 5.66
